One data set concerns HEK293T cells. The experiment in a line: Cell viability assay, HEK293T. It counts as cell-based, human. The note with it: Antp-TPR; normal cells HEK293T; mean of three independent experiments each in triplicate; 72 h (Figure 2).
For the next data set, the system named is BT20 cells. The experiment in a line: Cell viability assay, BT20. In kind it is cell-based, human. Conditions: Antp-TPR; breast cancer BT20; mean of three independent experiments each in triplicate; 72 h (Figure 2).
Another data set deals with LNcap cells. Conditions: Antp-TPR; prostate cancer LNcap; mean of three independent experiments each in triplicate; 72 h (Figure 2).
Data set [1] in a line: Observation of behavior and appetite after treatment. In kind it is in vivo. Conditions: mice.
The next data set concerns PE cells. The experiment in a line: Cell viability assay, PE. In kind it is cell-based, human. The note with it: Antp-TPR; normal cells PE; mean of three independent experiments each in triplicate; 72 h (Figure 2).
The subject of the next data set is BXPC3 cells. The experiment in a line: Cell viability assay, BXPC3. It counts as cell-based, human. The note with it: Antp-TPR; pancreatic cancer BXPC3; mean of three independent experiments each in triplicate; 72 h (Figure 2).
The test system of another data set is MDA-MB-231 cells. The experiment in a line: Cell viability assay, MDA-MB-231. In kind it is cell-based, human. Conditions: Antp-TPR; breast cancer MDA-MB-231; mean of three independent experiments each in triplicate; 72 h (Figure 2).
In another data set the test system is A549 cells. The experiment in a line: Cell viability assay, A549. In kind it is cell-based, human. Conditions: Antp-TPR; lung cancer A549; mean of three independent experiments each in triplicate; 72 h (Figure 2).
The next data set has as its system liver, kidney, and lung. The experiment in a line: Histologic examination of organs (H & E). The note with it: 5 mg/kg i.v., nine times, versus saline. In kind it is in vivo, athymic nude mice. The source says: (A) BXPC3 pancreatic cancer cells were implanted subcutaneously into athymic nude mice. […] Each group had six animals (n = 6), and experiments were repeated twice. Data are expressed as mean ± SD. […] Scale bars, 25 μm. (C) Histologic examination after treatment with Antp-TPR hybrid peptide.

Data set [2] deals with normal human cell lines (HEK293T, MRC5, and PE). The experiment in a line: Cell viability assay, normal cell lines (panel). The note with it: identical concentrations, 72 h.
Description: (§1) The following human tumor and normal cell lines were obtained from the American Type Culture Collection (ATCC): human breast cancer (BT-20, T47D, and MDA-MB-231), lung cancer (A549), kidney cancer (Caki-1), prostate cancer (LNCap), gastric cancer (OE19) and lung fibroblast (MRC5). Human pancreatic cancer cell line (BXPC3) was purchased from the European Collection of Cell Culture (ECACC). Human embryonic kidney cell line (HEK293T) and human normal pancreatic epithelial (PE) cell line ACBRI 515 were purchased from RIKEN cell bank and DS Pharma Biomedical, respectively. Cells were cultured in RPMI-1640 (BT-20, MDA-MB-231, T47D, LNCap, OE19, and BXPC3), MEM (MRC5 and A549), DMEM (HEK293T and Caki-1) or CSC (PE) containing 10% fetal bovine serum (FBS), 100 μg/ml penicillin, and 100 μg/ml streptomycin.
(§2) Cells were seeded on to 96-well plates at 2000-3000 cells/well and incubated with the test peptide. After incubation, an assay for cell viability was carried out using Living Cell Count Reagent SF (Nacalai Tesque) according to the manufacturer's protocol. Absorbance was measured at a wavelength of 450 nm using a 96-well microplate reader (GE Healthcare).
(§3) Data represent the mean ± SD from experiments performed in triplicate.
The next data set relates to Caki-1 cells. The note with it: Antp-TPR; renal cancer Caki-1; mean of three independent experiments each in triplicate; 72 h (Figure 2).
For another data set, the system named is OE19 cells. Conditions: Antp-TPR; gastric cancer OE19; mean of three independent experiments each in triplicate; 72 h (Figure 2).
The next data set has as its system MRC5 cells. Conditions: Antp-TPR; normal cells MRC5; mean of three independent experiments each in triplicate; 72 h (Figure 2).
The subject of data set [3] is normal and cancer cell lines. The experiment in a line: Cell viability assay, normal and cancer cell lines (panel). Conditions: 72 h. It counts as cell-based, human.
Description: as §1, §2, §3
Data set [4] deals with interaction of Hsp90 with the TPR2A domain of Hop. The experiment in a line: SPR competition: Hsp90 binding to TPR2A domain of Hop. In kind it is biochemical, human. Conditions: Hsp90 1 μM over immobilized TPR2A (5000 RU), peptide 1.4, 14, 140, 280, 700 μM and 1 mM. As to the method:
To confirm the presence of purified protein, SDS/PAGE was performed according to the method of Laemmli.
SPR experiments were performed with the Biacore biosensor 3000 system as described previously. Human recombinant Hop, FKBP5, PP5, and purified TPR2A domain of Hop proteins were immobilized on the surface of CM5 sensor chips via N-hydroxysuccinimide and N-ethyl-N'-(dimethylaminopropyl)carbodiimide activation chemistry according to the manufacturer's instructions. Biotin-conjugated TPR peptide (biotin-TPR) was immobilized on the surface of streptavidin (SA) sensor chip. […] HBS-EP buffer (0.01 M Hepes/0.15 M NaCl/0.005% Tween 20/3 mM EDTA, pH 7.4) was used as a running buffer during the assay to inhibit non-specific binding. Data analysis was performed using BIA evaluation version 4.1 software. […] SPR signals obtained in the absence of competing peptides were used as a reference (100% binding) to normalize values obtained in the presence of peptides.
The SPR signal in the absence of competing peptides was used as a reference (100% binding).

A word on the IC50: it is the midpoint of a concentration-inhibition curve.

Entries after “also recorded” stand apart in the source; their conditions may differ. Peptide text beside a SMILES is read from it.

Description for A549 cells: as §1, §2, §3
Description for BT20 cells: as §1, §2, §3
Description for BXPC3 cells: as §1, §2, §3
Description for Caki-1 cells: as §1, §2, §3
Description for HEK293T cells: as §1, §2, §3
Description for LNcap cells: as §1, §2, §3
Description for MDA-MB-231 cells: as §1, §2, §3
Description for MRC5 cells: as §1, §2, §3
Description for OE19 cells: as §1, §2, §3
Description for PE cells: as §1, §2, §3

For the molecule `CC[C@H](C)[C@H](NC(=O)[C@H](CCCNC(=N)N)NC(=O)[C@H](C)NC(=O)[C@H](Cc1ccc(O)cc1)NC(=O)[C@H](C)NC(=O)[C@H](CCCCN)NC(=O)[C@H](CCCCN)NC(=O)[C@H](CCCCN)NC(=O)[C@H](Cc1c[nH]c2ccccc12)NC(=O)[C@H](CCCCN)NC(=O)[C@H](CCSC)NC(=O)[C@H](CCCNC(=N)N)NC(=O)[C@H](CCCNC(=N)N)NC(=O)[C@H](CC(N)=O)NC(=O)[C@H](CCC(N)=O)NC(=O)[C@H](Cc1ccccc1)NC(=O)[C@H](Cc1c[nH]c2ccccc12)NC(=O)[C@@H](NC(=O)[C@H](CCCCN)NC(=O)[C@@H](NC(=O)[C@H](CCC(N)=O)NC(=O)[C@@H](N)CCCNC(=N)N)[C@@H](C)CC)[C@@H](C)CC)C(=O)NCC(=O)N[C@@H](CC(N)=O)C(=O)N[C@@H](CO)C(=O)N[C@@H](Cc1ccc(O)cc1)C(=O)N[C@@H](Cc1ccccc1)C(=O)N[C@@H](CCCCN)C(=O)O` [Antp-TPR] (H-RQIKIWFQNRRMKWKKKAYARIGNSYFK-OH), the IC50 in the data set with HEK293T cells was more than 100 µM; with BT20 cells it was 37.4 µM; in the data set on LNcap cells it was 56.7 µM; with PE cells, more than 100 µM; in the data set on BXPC3 cells, 44.8 µM; in the data set with MDA-MB-231 cells it was 56.9 µM. For the same molecule, the IC50 in the data set with A549 cells is 65.9 µM; in the data set on Caki-1 cells it was 47.9 µM; with OE19 cells, 33.4 µM; in the data set on MRC5 cells, more than 100 µM. The “abnormal behaviors or losing of appetite” value in [1] is listed as “any abnormal behaviors or losing of appetite after the treatment with this peptide was not also observed”. For the same molecule, the “histologic examination of liver, kidney, and lung” value with liver, kidney, and lung is “equally unremarkable in the saline or hybrid peptide-treated mice; also recorded: did not cause serious damages to the main organs (liver, kidney, and lung) and normal tissues”. The “effect on viability of normal cells” value in data set [2] is given as “did not apparently reduce the viability; also recorded: less cytotoxic to normal cells”.
For the molecule `CC[C@H](C)[C@H](NC(=O)[C@H](CCCNC(=N)N)NC(=O)[C@H](C)NC(=O)[C@H](Cc1ccc(O)cc1)NC(=O)[C@H](C)NC(=O)[C@@H](N)CCCCN)C(=O)NCC(=O)N[C@@H](CC(N)=O)C(=O)N[C@@H](CO)C(=O)N[C@@H](Cc1ccc(O)cc1)C(=O)N[C@@H](Cc1ccccc1)C(=O)N[C@@H](CCCCN)C(=O)O` [TPR], the “effect on viability / cytotoxicity” value in data set [3] is given as “no effect on normal or cancer cells; also recorded: no cytotoxicity”.
As for KAYAAAGNSYFK [TPR mutant 1], the “competition for interaction of Hsp90 with TPR2A domain of Hop” value (shortened to “competition for interaction of Hsp90”) in data set [4] is recorded as “did not demonstrate any protein interaction when analyzed at up to millimolar concentrations”.
Regarding “KAYARIGNSGGG [TPR mutant 2, TPR with last three amino acids, Tyr-Phe-Lys, replaced with three Gly residues]”, the “competition for interaction of Hsp90” value in data set [4] is “did not demonstrate any protein interaction when analyzed at up to millimolar concentrations”.
With “RKFSAAIGYNKY [TPR scramble, scramble peptide of TPR]”, the “competition for interaction of Hsp90” value in data set [4] is reported as “did not demonstrate any protein interaction when analyzed at up to millimolar concentrations”.
As for “RQIKIWFQNRRMKWKKKAYAAAGNSYFK [Antp-TPR mutant 1]”, in [3], the selective antitumor activity result is recorded as “did not show selective antitumor activities”.
In the case of “RQIKIWFQNRRMKWKKKAYARIGNSGGG [Antp-TPR mutant 2]”, in data set [3], the selective antitumor activity result is reported as “did not show selective antitumor activities”.
On to “RQIKIWFQNRRMKWKKRKFSAAIGYNKY [Antp-scramble, scramble peptide fused to Antennapedia helix III]”, for which the “effect on viability / cytotoxicity” value in [3] was “no effect on these cell lines”.
